{
  "source": "patent US8518373B2",
  "about": "“Ionic and non-ionic radiographic contrast agents for use in combined X-ray and nuclear magnetic resonance diagnostics” (priority 2001, dated 2013)",
  "key": {"[1]": {"conditions": "cited from earlier work"}, "[2]": {"test": "Z-spectra and Saturation transfer (ST) profiles of aqueous solutions in MT imaging", "conditions": "7 T, pH 7.4, 312 K, 30 mM (Gd-DTPA 1 mM)", "experimental": "The Magnetization Transfer or, more precisely, the amount of saturation transfer (ST) registered in a MT based MRI procedure following irradiation of the mobile proton(s), is conveniently quantified as ST % according to the following equation (2) ST %=100×(1−Ms/M0) (2)\nIn a first series, tests were conducted at physiological pH and temperature. A second series of tests were conducted at acidic pH.\nIn the first series of tests, Z-spectra and corresponding Saturation transfer (ST) profiles were measured at 7 T, pH 7.4 and 312 K, for aqueous solutions of iopamidol (30 mM), L-amino acids alanine, glutamine and lysine (each 30 mM), Gd-DTPA (1 mM) and Iopamidol (30 mM)."}, "[3]": {"conditions": "cited from earlier work", "remark": "listed apart in the source"}, "[4]": {"conditions": "rabbit, in vivo, cited from earlier work"}, "[5]": {"test": "residual water signal after irradiating the amido proton signal, effect of temperature, 200 mM Iopamidol", "conditions": "pH 6.74, 2.1 T, irradiation at 9.4 ppm, attenuation 300 dB", "experimental": "A 200 mM Iopamidol solution at pH=6.74 was investigated at 2.1 T magnetic field intensity (JEOL EX-90 spectrometer). After irradiating the amido proton signal at 9.4 ppm, with attenuation of 300 dB, the area under the water signal was measured. Considering 100 the area of the water signal with irradiation at −9.4 ppm, a drastic reduction is observed following irradiation of the amido protons. The effect increases as temperature increase so that: […]"}, "[6]": {"test": "residual water signal after irradiating the amido protons, effect of radiofrequency field intensity, 200 mM Iopamidol", "conditions": "for % residual signal: 200 mM, pH 6.29, 2.1 T, 39° C., rf field at 9.4 ppm", "experimental": "A 200 Mm Iopamidol solution at pH=6.29 was investigated at 2.1 T magnetic field intensity and at a temperature of 39° C. (JEOL EX-90 spectrometer). Considering 100 the area of the water signal with irradiation at −9.4 ppm, its decrease (expressed as % residual signal) was evaluated in the presence of a rf field tuned at 9.4 ppm (signal of the amido protons)."}, "[7]": {"conditions": "dog, in vivo; cited from earlier work"}},
  "note": "Like-named read-outs stand apart in the source and are kept apart here.",
  "data": [
    {"compound": "O=C1NCCN1", "note": "[2-Imidazolidinone]", "values": [
      {"measurement": "LD50 intraperitoneal mouse", "setting": "[1]; intraperitoneal, mouse", "value": 500, "unit": "mg/kg"}
    ]},
    {"compound": "O=C(O)C1CCCCN1", "note": "(stereo not drawn) [Pipecolinic. Acid]", "values": [
      {"measurement": "LD50 intravenous mouse", "setting": "[1]; intravenous, mouse", "value": 2200, "unit": "mg/kg"}
    ]},
    {"compound": "NCCCC[C@H](N)C(=O)O", "note": "[L-lysine]", "values": [
      {"measurement": "Saturation Transfer Value pH = 7.4", "setting": "[2]", "value": 0},
      {"measurement": "Saturation Transfer Value pH = 7.4", "setting": "[2]; listed as lysine", "value": "failed to provide any detectable signals"}
    ]},
    {"compound": "Cc1cn([C@H]2C[C@H](O)[C@@H](CO)O2)c(=O)[nH]c1=O", "note": "[Thymidine]", "values": [
      {"measurement": "LD50 intraperitoneal mouse", "setting": "[1]; mouse, in vivo, ip", "value": 2512, "unit": "mg/kg"}
    ]},
    {"compound": "CC(=O)Nc1c(I)c(NC(C)=O)c(I)c(C(=O)[O-])c1I.[Na+]", "note": "[Sodium diatrizoate]", "values": [
      {"measurement": "LD50 i.v. in rats", "setting": "[3]; i.v., rats (Langecker)", "value": 14700, "unit": "mg/kg"}
    ]},
    {"compound": "C[C@H](N)C(=O)O", "note": "[L-alanine]", "values": [
      {"measurement": "Saturation Transfer Value pH = 7.4", "setting": "[2]", "value": 0},
      {"measurement": "Saturation Transfer Value pH = 7.4", "setting": "[2]; listed as alanine", "value": "failed to provide any detectable signals"}
    ]},
    {"compound": "N=C(N)NCCC[C@H](N)C(=O)O", "note": "[L-Arginine]", "values": [
      {"measurement": "LD50 intravenous mouse", "setting": "[1]; mouse, in vivo, iv", "value": 2030, "unit": "mg/kg"}
    ]},
    {"compound": "CC(=O)Nc1c(I)c(C(=O)N[C@H]2C(O)O[C@H](CO)[C@@H](O)[C@@H]2O)c(I)c(N(C)C(C)=O)c1I", "note": "(stereo partly drawn) [Metrizamide]", "values": [
      {"measurement": "LD50 i.v. in mice", "setting": "[1]; i.v., mice (Aspelin)", "value": 17300, "unit": "mg/kg"},
      {"measurement": "LD50 i.v. in mice", "setting": "[1]; i.v., mice (Salvenson)", "value": 18600, "unit": "mg/kg"},
      {"measurement": "LD50 i.v. in mice", "setting": "[1]; i.v., mice (Sovak)", "value": 11500, "unit": "mg/kg"},
      {"measurement": "LD50 i.v. in mice", "setting": "[1]; i.v., mice (Torsten)", "value": 15000, "unit": "mg/kg"}
    ]},
    {"compound": "O=C1CC(=O)NC(=O)N1", "note": "[Barbituric Acid]", "values": [
      {"measurement": "LD50 orally in male rats", "setting": "[3]; oral, male rats", "value": "> 5000", "unit": "mg/kg"}
    ]},
    {"compound": "N=C(N)N", "note": "[Guanidine]", "values": [
      {"measurement": "LD orally in rabbits", "setting": "[4]; po", "value": 500, "unit": "mg/kg"}
    ]},
    {"compound": "Iopromide", "values": [
      {"measurement": "LD50 in rats", "setting": "[3]; rats, i.v.", "value": 11.4, "unit": "g iodine/kg body weight"},
      {"measurement": "LD50 in mice", "setting": "[1]; mice, i.v.", "value": 16.5, "unit": "g iodine/kg body weight"}
    ]},
    {"compound": "C[C@H](O)C(=O)Nc1c(I)c(C(=O)NC(CO)CO)c(I)c(C(=O)NC(CO)CO)c1I", "note": "[Iopamidol]", "values": [
      {"measurement": "% residual signal", "setting": "[5]; 15° C.", "value": 39, "unit": "%"},
      {"measurement": "% residual signal", "setting": "[5]; 25° C.", "value": 30, "unit": "%"},
      {"measurement": "% residual signal", "setting": "[5]; 39° C.", "value": 24, "unit": "%"},
      {"measurement": "LD50 in rats", "setting": "[3]; rat, in vivo", "value": 28.2, "unit": "g/kg"},
      {"measurement": "LD50 in mice", "setting": "[1]; mouse, in vivo", "value": 44.5, "unit": "g/kg"},
      {"measurement": "reduction of the signal from water in MRI saturation transfer", "setting": "[6]; 2.1 T magnetic field", "value": 80, "unit": "%"},
      {"measurement": "% residual signal", "setting": "[6]; attenuation 300 dB", "value": 15, "unit": "%"},
      {"measurement": "% residual signal", "setting": "[6]; attenuation 400 dB", "value": 40, "unit": "%"},
      {"measurement": "LD50 in dogs", "setting": "[7]", "value": 34700, "unit": "mg/kg"},
      {"measurement": "LD50 in rabbits", "setting": "[4]", "value": 19600, "unit": "mg/kg"}
    ]}
  ]
}
